Reference: ChEMBL document CHEMBL1201862, “PubChem BioAssay data set” (2004)
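Cultured in 96-well plates, cells were exposed to test compound for 48 hours across five concentrations. GI50 is the concentration that inhibits growth by half.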 Activity calls are given as the source filed them. No stated cut-off is given here; in the data, active = GI50 up to about 1.1 µM and inactive = higher.

Assays:
Assay in all cases: DTP human tumour cell line panel, 48 h
NCI-H460 = test system: NCI-H460
U-251 = test system: U-251
RPMI-8226 = test system: RPMI-8226
Hs-578T = test system: Hs-578T
DU-145 = test system: DU-145
NCI-H23 = test system: NCI-H23
MDA-MB-231 = test system: MDA-MB-231
SK-MEL-28 = test system: SK-MEL-28
A549 = test system: A549
TK-10 = test system: TK-10
NCI/ADR-RES = test system: NCI/ADR-RES
A498 = test system: A498
OVCAR-4 = test system: OVCAR-4
SNB-19 = test system: SNB-19
KM12 = test system: KM12
K562 = test system: K562
CCRF-CEM = test system: CCRF-CEM
NCI-H522 = test system: NCI-H522
CAKI-1 = test system: CAKI-1
HOP-62 = test system: HOP-62

Measured: GI50

CO[P@@]1(=O)O[C@@H](c2ccccc2)[C@H](O)[C@]1(O)c1ccccc1
inactive: NCI-H460 > 100 µM | U-251 > 100 µM | RPMI-8226 > 100 µM | Hs-578T > 100 µM | DU-145 > 100 µM | NCI-H23 > 100 µM | MDA-MB-231 > 100 µM | SK-MEL-28 > 100 µM | A549 > 100 µM | TK-10 > 100 µM | NCI/ADR-RES > 100 µM | A498 > 100 µM | OVCAR-4 > 100 µM | SNB-19 > 100 µM | KM12 > 100 µM | K562 > 100 µM | CCRF-CEM > 100 µM | NCI-H522 > 100 µM | CAKI-1 > 100 µM

CC[C@H](C)C1=C(O)[N@+]2([O-])Oc3ccc(-c4c(O)c(O)c(-c5ccc(O)cc5)c(OC(C)=O)c4OC(C)=O)cc3O[C@]2([C@@H](C)CC)C(=O)N1O
inactive: NCI-H460 19 µM | U-251 26.7 µM | RPMI-8226 10.6 µM | Hs-578T 26.5 µM | DU-145 33.3 µM | NCI-H23 47.3 µM | MDA-MB-231 > 50 µM | SK-MEL-28 46.8 µM | A549 16.7 µM | TK-10 24.3 µM | NCI/ADR-RES 16.5 µM | A498 13.9 µM | OVCAR-4 11.6 µM | SNB-19 47.3 µM | KM12 33.7 µM | K562 21.4 µM | HOP-62 30.1 µM | NCI-H522 7.85 µM | CAKI-1 28.8 µM

CC(Oc1ccc(Cl)cc1Cl)C(=O)NN1C(=O)CSC1c1ccc(Cl)cc1 (stereo not drawn)
inactive: NCI-H460 > 100 µM | U-251 40.3 µM | RPMI-8226 35.7 µM | Hs-578T 64.7 µM | DU-145 63.5 µM | NCI-H23 79.8 µM | MDA-MB-231 27.4 µM | SK-MEL-28 67.3 µM | A549 31 µM | TK-10 80.5 µM | NCI/ADR-RES > 100 µM | A498 25.2 µM | OVCAR-4 35.3 µM | SNB-19 30.4 µM | KM12 86.3 µM | K562 44.1 µM | HOP-62 33.6 µM | NCI-H522 93.1 µM | CAKI-1 18.9 µM

Cc1c(C)c2c(c(N)c1C#N)C(=O)N(OS(=O)(=O)c1ccccc1)C2=O
inactive: NCI-H460 37.5 µM | U-251 20.5 µM | RPMI-8226 15.1 µM | Hs-578T 34.8 µM | DU-145 11.6 µM | MDA-MB-231 52.8 µM | SK-MEL-28 24.5 µM | A549 15.6 µM | TK-10 18 µM | NCI/ADR-RES 22.6 µM | A498 > 100 µM | OVCAR-4 21.2 µM | SNB-19 > 100 µM | KM12 64.9 µM | K562 16.7 µM | CCRF-CEM 21.5 µM | NCI-H522 17.1 µM | CAKI-1 20.8 µM

O=C(NCCC1([N+](=O)[O-])CCN(C(=O)c2ccccc2)CC1)c1ccccc1
inactive: NCI-H460 35.3 µM | U-251 > 10 µM | RPMI-8226 58.7 µM | Hs-578T > 100 µM | DU-145 > 100 µM | NCI-H23 > 100 µM | MDA-MB-231 > 100 µM | A549 > 100 µM | TK-10 > 100 µM | NCI/ADR-RES > 100 µM | A498 > 100 µM | OVCAR-4 52 µM | SNB-19 > 100 µM | KM12 > 100 µM | K562 > 100 µM | CCRF-CEM > 100 µM | NCI-H522 > 100 µM | CAKI-1 42.3 µM

Cc1nc2ccc(Cl)cc2c(Cl)c1CCCl
inactive: NCI-H460 43.4 µM | U-251 45.9 µM | RPMI-8226 35.2 µM | Hs-578T 38.1 µM | DU-145 43.7 µM | NCI-H23 60.4 µM | MDA-MB-231 83.6 µM | SK-MEL-28 > 100 µM | A549 40.9 µM | TK-10 > 100 µM | NCI/ADR-RES 33.5 µM | A498 83 µM | SNB-19 45.4 µM | KM12 30.8 µM | K562 9.86 µM | CCRF-CEM 15.1 µM | HOP-62 42.4 µM | NCI-H522 39.3 µM | CAKI-1 54 µM

CCOC(=O)c1cc2c3c(c(C(C)=O)c(O)c2[nH]1)N(CC(C)CC)CC3 (stereo not drawn)
inactive: NCI-H460 > 100 µM | U-251 78.2 µM | RPMI-8226 36.1 µM | Hs-578T 8.97 µM | DU-145 > 100 µM | NCI-H23 44.9 µM | MDA-MB-231 33 µM | SK-MEL-28 > 100 µM | A549 62.8 µM | TK-10 > 100 µM | NCI/ADR-RES 29.6 µM | A498 80.9 µM | OVCAR-4 43.1 µM | SNB-19 92 µM | KM12 56.4 µM | K562 32.5 µM | CCRF-CEM 35.6 µM | NCI-H522 24.2 µM | CAKI-1 64.9 µM

CCOc1ccc2nc3nc(O)nc(C)c3c(NC(C)(CO)CO)c2c1
inactive: NCI-H460 > 100 µM | U-251 > 100 µM | Hs-578T > 100 µM | DU-145 > 100 µM | NCI-H23 > 100 µM | MDA-MB-231 > 100 µM | SK-MEL-28 > 100 µM | A549 > 100 µM | TK-10 > 100 µM | NCI/ADR-RES > 100 µM | A498 > 100 µM | OVCAR-4 > 100 µM | SNB-19 > 100 µM | KM12 > 100 µM | K562 > 100 µM | CCRF-CEM > 100 µM | HOP-62 > 100 µM | NCI-H522 > 100 µM | CAKI-1 > 100 µM

c1ccc(N/N=C2\CC(c3ccccc3)Oc3ccccc32)cc1 (stereo not drawn)
inactive: NCI-H460 45 µM | U-251 33.8 µM | Hs-578T 36.5 µM | DU-145 36 µM | NCI-H23 60.4 µM | MDA-MB-231 49.3 µM | SK-MEL-28 > 100 µM | A549 53.7 µM | TK-10 74.1 µM | NCI/ADR-RES 43.1 µM | A498 42.2 µM | OVCAR-4 46.2 µM | SNB-19 35.9 µM | KM12 32.4 µM | K562 41.9 µM | CCRF-CEM 33 µM | HOP-62 61 µM | NCI-H522 21.8 µM | CAKI-1 50.2 µM

O=C(O)c1cc(C(=O)C(=O)c2cc(C(=O)O)c(O)c3ccccc23)c2ccccc2c1O
inactive: NCI-H460 > 100 µM | U-251 > 100 µM | RPMI-8226 > 100 µM | Hs-578T > 100 µM | DU-145 > 100 µM | NCI-H23 > 100 µM | MDA-MB-231 > 100 µM | SK-MEL-28 > 100 µM | A549 > 100 µM | TK-10 > 100 µM | NCI/ADR-RES > 100 µM | A498 > 100 µM | OVCAR-4 > 100 µM | SNB-19 > 100 µM | KM12 > 100 µM | K562 > 100 µM | HOP-62 > 100 µM | NCI-H522 > 100 µM | CAKI-1 > 100 µM
